Measurements taken from ChEMBL document CHEMBL1152216, “Pyrazino[1,2-b]isoquinolines: synthesis and study of their cytostatic and cytotoxic properties” (2008).
Activity calls are given as the source filed them. The calls are words filed in the database; no cut-off is given here.

Key:
A549 [1] = experiment: Induction of apoptosis in human A549 cells at 50 uM after 48 hrs by propidium iodide staining; format: functional, cell-based
A549 [2] = experiment: Cell cycle arrest in human A549 cells assessed as decrease in accumulation at G1 phase at […] after 48 hrs by flow cytometry; format: functional, cell-based
MDA-MB-231 [3] = experiment: Growth inhibition of human MDA-MB-231 cells after 48 hrs by MTT assay; format: functional; details: MDA-MB-231, 48 h
A549 [4] = experiment: Growth inhibition of human A549 cells after 48 hrs by MTT assay; format: functional; details: A549, 48 h
A549 [5] = experiment: Cytotoxicity against human A549 cells after 48 hrs by MTT assay; format: functional; details: A549, 48 h
HT-29 [6] = experiment: Growth inhibition of human HT-29 cells after 48 hrs by MTT assay; format: functional; details: HT-29, 48 h
A549 [7] = experiment: Cell cycle arrest in human A549 cells assessed as decrease in accumulation at G2/M phase at […] after 48 hrs by flow cytometry; format: functional, cell-based
A549 [8] = experiment: Induction of DNA cleavage in human A549 cells assessed as H2AX phosphorylation at 50 uM after 24 hrs by Western blot; format: functional, cell-based
A549 [9] = experiment: Induction of DNA cleavage in human A549 cells assessed as CHK2 Ser19 phosphorylation at 50 uM after 24 hrs by Western blot; format: functional, cell-based
A549 [10] = experiment: Induction of DNA cleavage in human A549 cells assessed as p53 Ser15 phosphorylation at 50 uM after 24 hrs by Western blot; format: functional, cell-based
A549 [11] = experiment: Induction of apoptosis in human A549 cells assessed as JNK activation at 50 uM after 24 hrs by Western blot; format: functional, cell-based
A549 [12] = experiment: Induction of apoptosis in human A549 cells assessed as p38 activation at 50 uM after 24 hrs by Western blot; format: functional, cell-based
A549 [13] = experiment: Induction of apoptosis in human A549 cells assessed as AKT signaling pathway activation at 50 uM after 24 hrs by Western blot; format: functional, cell-based
MDA-MB-231 [14] = experiment: Cytotoxicity against human MDA-MB-231 cells after 48 hrs by MTT assay; format: functional; details: MDA-MB-231, 48 h, read-out: LC50 (the source's name)
HT-29 [15] = experiment: Cytotoxicity against human HT-29 cells after 48 hrs by MTT assay; format: functional; details: HT-29, 48 h, read-out: LC50 (the source's name)
A549 [16] = experiment: Cell cycle arrest in human A549 cells assessed as increase in accumulation at G1 phase at […] after 48 hrs by flow cytometry; format: functional, cell-based

Compound	Activity (A549 [1])	Activity (A549 [2])	GI50 (MDA-MB-231 [3]) [µM]	TGI (MDA-MB-231 [3]) [µM]	GI50 (A549 [4]) [µM]	TGI (A549 [4]) [µM]	LC50 (A549 [5]) [µM]	GI50 (HT-29 [6]) [µM]	TGI (HT-29 [6]) [µM]	Activity (A549 [7])	Activity (A549 [8])	Activity (A549 [9])	Activity (A549 [10])	Activity (A549 [11])	Activity (A549 [12])	Activity (A549 [13])	CC50 (MDA-MB-231 [14]) [µM]	CC50 (HT-29 [15]) [µM]	Activity (A549 [16])
COc1c(C)c(OC)c(OC)c2c1C[C@H]1[C@@H](O)N(C(=O)OC(C)C)CC(=O)N1[C@H]2COCc1ccccc1 (relative stereo)	Active	Active	9.27	15.3	5.68	11.7	17.4	8.32	9.84	Active	inactive	inactive	inactive	inactive	inactive	inactive	–	–	–
COc1c(C)c(OC)c(OC)c2c1C[C@H]1CNCC(=O)N1[C@H]2COCc1ccccc1 (relative stereo)	–	–	–	–	13.4	> 23.4	> 23.4	–	–	–	–	–	–	–	–	–	–	–	–
COc1c(C)c(OC)c(OC)c2c1C[C@H]1CN(C)CC(=O)N1[C@H]2COCc1ccccc1 (relative stereo)	–	–	–	–	12.7	> 22.7	> 22.7	–	–	–	–	–	–	–	–	–	–	–	–
COc1c(C)c(OC)c(OC)c2c1C[C@H]1[C@H](C#N)N3C([C@@H]4O[C@H]5c6ccccc6[C@H](C#N)N5C[C@H]3c3c(OC)c(OC)c(C)c(OC)c34)[C@@H]2N1C (relative stereo)	–	–	11.4	12	11.4	12	12.7	7.35	8.22	–	inactive	inactive	inactive	inactive	inactive	inactive	12.8	10.2	–
COc1c(C)c(OC)c(OC)c2c1C[C@H]1CN(C(=O)OC(C)C)CC(=O)N1[C@H]2COCc1ccccc1 (relative stereo)	–	–	1.09	–	0.449	1.89	–	0.195	0.273	–	–	–	–	–	–	–	–	0.527	–
COc1c(C)c(OC)c2c(c1OC)[C@@H]1CN3C(=O)c4ccccc4[C@@H]3O[C@H]2C2=CN(C(=O)OC(C)C)CC(=O)N21 (relative stereo)	–	–	–	–	2.91	–	–	10.4	–	–	–	–	–	–	–	–	–	–	–
COc1c(C)c(OC)c(OC)c2c1C=C1CN(C)CC(=O)N1[C@H]2CN1Cc2ccccc2C1=O	–	–	11.9	–	–	–	–	3.67	–	–	–	–	–	–	–	–	–	–	–
COc1cc2c(cc1O)CCN[C@]21CS[C@@H]2c3c(OC(C)=O)c(C)c4c(c3[C@H](COC1=O)N1[C@@H]2[C@H]2c3c(cc(C)c(OC)c3O)C[C@@H]([C@@H]1O)N2C)OCO4 [TRABECTEDIN]	–	–	0.0551	0.0578	0.125	0.131	–	0.0517	0.063	–	–	–	–	–	–	–	–	–	–
COc1c(C)c(OC)c(OC)c2c1C[C@H]1CN(C(=O)OC(C)C)CC(=O)N1[C@H]2COC(=O)/C=C/c1ccccc1 (relative stereo)	Active	–	–	–	9.05	–	–	9.23	–	Active	inactive	inactive	inactive	inactive	inactive	inactive	–	–	Active
COc1c(C)c(OC)c(OC)c2c1C[C@H]1[C@@H](O)N(C(=O)OC(C)(C)C)CC(=O)N1[C@H]2COCc1ccccc1 (relative stereo)	–	–	12	> 18.4	4.79	17.5	> 18.4	14.4	> 18.4	–	–	–	–	–	–	–	> 18.4	> 18.4	–
COc1c(C)c(OC)c(OC)c2c1C[C@@H]1CN(C(=O)OC(C)C)CC(=O)N1[C@H]2COCc1ccccc1 (relative stereo)	–	–	–	–	8.19	16.8	–	10.5	–	–	–	–	–	–	–	–	–	–	–
